Measurements: US20250034614A1, “PERSISTER CONTROL BY LEVERAGING DORMANCY ASSOCIATED REDUCTION OF ANTIBIOTIC EFFLUX” (Syracuse University, priority 2021, published 2025)
Read-outs that look alike come from different tables or passages of the source.

Experiments:
[1] = system: E. coli HM22; experiment: IC50 of killing, individual treatments vs co-treatment; assay type: cell-based; settings: Escherichia coli, read-out: IC50 (concentration required to kill 50% of the population)
[2] = system: E. coli HM22 persister cells; experiment: Growth and CFU of treated persister cells during wake-up in LB
Description: At each designated time point, 1 mL of the cell culture was collected, washed with PBS, and centrifuged at a speed of 13,000 rpm for 3 min. Treated persister cells and untreated controls were washed and resuspended with LB medium supplemented with DPA, and incubated at 37° C. with shaking at 200 rpm. At each designated time point, samples were collected to quantify intracellular antibiotic concentration as described above and to determine growth by measuring OD600.

[3] = system: E. coli HM22 persister cells; assay type: cell-based, Escherichia coli; settings: for persister cells killed: 1 h in PBS, relative to untreated
[4] = system: E. coli HM22 normal and persister cells; settings: for intracellular accumulation, persister cells relative to normal cells: treated at 100 μg/mL, reporter bioassay
[5] = Validation of chloroform extraction (partition coefficient); settings: concentration in chloroform phase over aqueous phase
Description: To validate if chloroform is effective in extracting the antibiotics after cell lysis, a validation test was performed. Briefly, 100 μL of antibiotic solution was mixed with 100 μL chloroform in a microcentrifuge tube by vortexing. Then the solution was centrifuged for 5 min at 5,000×g. […] Each phase was collected separately and evaporated overnight in a desiccator. […] The samples were then transferred to a 96-well plate where absorbance readings were measured using an Epoch 2 Microplate Spectrophotometer (BioTek, Winooski, VT, USA). […] The concentrations were then calculated by comparing with a standard curve of absorbance with known concentrations of corresponding antibiotic.

[6] = system: purified 70S ribosome; settings: read-out: IC50 (concentration of the antibiotic needed to inhibit 50% of the purified 70S ribosome); cited from earlier work
[7] = system: E. coli HM22 persister cells; experiment: Concurrent treatment with ampicillin in LB compared with ampicillin alone; assay type: cell-based, Escherichia coli; settings: concurrent 100 μg/mL ampicillin and 100 μg/mL test antibiotic
From the text: E. coli HM22 was used as the model strain in this test because it contains the hipA7 allele that leads to high-level persistence.

[8] = system: AcrAB-TolC mutants; experiment: Killing of efflux mutants compared with wild-type (in words); assay type: cell-based, Escherichia coli; settings: normal cells of ΔacrA, ΔacrB, ΔtolC
[9] = system: E. coli HM22 normal cells; experiment: Killing of normal (exponential phase) cells, CFU by drop plate; assay type: cell-based, Escherichia coli; settings: for normal cells killed: 100 μg/mL, 1 h in PBS
[10] = system: E. coli JW5536 (ΔacrB mutant); experiment: Killing of normal cells of efflux mutant ΔacrB; settings: 100 μg/mL
Description: (§1) The mid-exponential phase cultures were collected by centrifugation at 13,000 rpm for 3 min at room temperature. The amount of cells used for each treatment was adjusted to OD600 of 0.5 in 500 μL. They were then washed with PBS (pH 7.4) three times. […] Relative viability was normalized by the untreated population. Each experimental condition was tested with five biological repeats.

[11] = system: E. coli HM22 persister cells; experiment: LIVE/DEAD staining of persister cells during treatment and wake-up; assay type: cell-based, Escherichia coli; settings: 100 μg/mL treated, washed
Description: . The present invention thus hypothesized that the killing effects took place during persister wake-up when the external antibiotic was withdrawn (after the treated cells were plated on antibiotic-free agar plates in this test). […] . […] .
Treated and untreated samples were washed once with PBS (pH 7.4). Cells were then immediately labeled with LIVE/DEAD BacLight bacterial viability kit (Life Technologies Inc., Carlsbad, CA) with a final concentration of 7.5 μM SYTO9 and 30 μM propidium iodide. After 15 min of staining, the cells were pelleted to remove the staining solution, re-suspended in PBS and vortexed briefly. Labeled cells were then imaged on microscope slides using an Axio Imager M1 fluorescence microscope (Axio Imager M1 fluorescence microscope, Carl Zeiss Inc., Berlin, Germany) with an Orca-Flash 4.0 LT camera (Hamamatsu Photonics, Hamamatsu City, Japan). At least 5 random spots were imaged for each sample. The mean gray value intensity was used to calculate the mean intensity generated from each channel (green and red). Each condition was tested with three biological replicates and 5 images were randomly taken from each sample.

[12] = system: E. coli HM22 normal cells; settings: 100 μM CCCP 10 min, then 100 μg/mL minocycline 1 h
From the text: Carbonyl cyanide m-chlorophenylhydrazone (CCCP) was used to depotentiate the membrane of E. coli normal cells and thus, mimic the change in membrane potential of persister cells. CCCP dissipates the PMF by allowing protons to leak across the membrane and thus inactivate efflux pumps. […] An overnight culture of E. coli HM22 was sub-cultured in LB medium supplemented with DPA with a starting OD600 of 0.05 until OD600 reached 0.3-0.45. The mid-exponential culture was collected by centrifugation at a speed of 13,000 rpm for 3 min at room temperature. […] Each experimental condition was tested with three biological replicates.

[13] = system: E. coli JW5503 (ΔtolC mutant); experiment: Killing of normal cells of efflux mutant ΔtolC; settings: 100 μg/mL
Description: as §1

[14] = system: E. coli JW4364 (ΔacrA mutant); experiment: Killing of normal cells of efflux mutant ΔacrA; settings: 100 μg/mL
Description: as §1

[15] = after treatment at 100 μg/mL for 1 h

Row | SMILES | IC50 [1] | persister cells killed ([3]; 30 μg/mL) | persister cells killed ([3]; 50 μg/mL) | persister cells killed ([3]; 100 μg/mL) | intracellular concentration in normal cells ([4]; after treatment at 100 μg/mL) | intracellular concentration in persister cells ([4]; after treatment at 100 μg/mL) | intracellular accumulation, persister cells relative to normal cells [4] | additional killing compared to 100 μg/mL ampicillin alone [7] | normal cells killed [9] | intracellular concentration in normal cells [4, 15] | intracellular concentration in persister cells [4, 15] | further results
1 | CC1(C)S[C@@H]2[C@H](NC(=O)[C@H](N)c3ccccc3)C(=O)N2[C@H]1C(=O)O [ampicillin] | 1 µg/mL |  |  |  |  |  |  |  |  |  |  | 
2 | CN(C)[C@@H]1C(O)=C(C(N)=O)C(=O)[C@@]2(O)C(O)=C3C(=O)c4c(O)c(NC(=O)CN5CCCC5)cc(F)c4C[C@H]3C[C@@H]12 [eravacycline] | 4.8 µg/mL | 50.9±7.7% | 98.2±0.5% | 99.9±0.03% | 24.2 ± 1.7 µg/mL | 92.1 ± 4.4 µg/mL | 3.8 times | 99.9% | 63.5±15.8% |  |  | regrowth of treated persister cells after removal of extracellular antibiotic and adding LB (in words) ([2]; OD600 / growth): unable to resume growth; decrease of CFU of treated persister cells after removal of extracellular antibiotic and addition of nutrient ([2]; over 8 hours): 97.1±0.9%; killing of persister cells in logs ([3]; 100 μg/mL): 3 log; Partition Coefficient [5]: 3.0 ± 0.3; IC50 [6]: 200 ± 100 nM; killing of efflux mutants compared to the wild-type strain (in words) [8]: more killing; killing of normal cells (in words) ([9]; concentrations below 100 μg/mL (0-50 μg/mL)): no significant killing
3 | CN(C)c1ccc(O)c2c1C[C@H]1C[C@H]3[C@H](N(C)C)C(O)=C(C(N)=O)C(=O)[C@@]3(O)C(O)=C1C2=O [minocycline] |  | 47.8±5.3% | 59.0±6.0% | 70.8±5.9% |  | 26.9 ± 0.7 µg/mL |  | 68% |  | 1.04e-05 ± 2.2e-06 µg/mL | 2.64e-05 ± 3.5e-06 µg/mL | normal cells of ΔacrB killed [10]: 99.9±0.01%; red/total fluorescence of treated persister cells ([11]; 0 min after adding LB): 20.2±3.3%; red/total fluorescence of treated persister cells ([11]; 30 min incubation with added LB): 37.9±3.0%; normal cells killed after CCCP pretreatment [12]: 95.9±2.5%; intracellular concentration in persister cells after wake-up ([4]; 4 h after washing the cells and adding LB medium): 26.8 ± 3.2 pg/mL; normal cells of ΔtolC killed [13]: 99.7±0.03%; normal cells of ΔacrA killed [14]: 98.6±0.3%
4 | CO[C@H]1/C=C/O[C@@]2(C)Oc3c(C)c([O-])c4c(O)c(cc(O)c4c3C2=O)NC(=O)/C(C)=C\C=C\[C@H](C)[C@H](O)[C@@H](C)[C@@H](O)[C@@H](C)[C@H](OC(C)=O)[C@@H]1C.[Na+] [rifamycin SV] |  |  |  | 75.0±5.12% | 4.3 ± 0.9 µg/mL | 14.0 ± 4.5 µg/mL | 3.2 times |  | did not kill |  |  | 
5 | CN(C)[C@@H]1C(O)=C(C(N)=O)C(=O)[C@@]2(O)C(O)=C3C(=O)c4c(O)cccc4[C@@](C)(O)[C@H]3C[C@@H]12 [tetracycline] |  |  |  |  |  |  |  |  |  | 5.5e-06 ± 1e-07 µg/mL | 1.6e-06 ± 8e-07 µg/mL | 
